Assays:
Melmet 5 cells = assay: subcutaneous Melmet 5 melanoma model; type: in vivo, mice; details: daily i.p. from 2 weeks: 20 mg/kg β-sitosterol, 25 mg/kg PLX4720, or both
Source text: (§1) • Figure 1: In vivo drug screening. (Figure left) Number of brain metastases at T1-weighted MRI with contrast (Student's t-test). (Figure right) Kaplan-Meier survival plot (Mantel-Cox log-rank test). There was no significant difference between vehicle- and memantine-treated mice. * P < 0.05; ** P < 0.01. All values are given as the mean ± s.e.m. • Figure 2: In vivo validation of β-sitosterol treatment-1. (Figure left) Number of brain metastases assessed by T1-weighted MRI with contrast (Student's t-test). The mean number of brain metastases in the vehicle group decreased slightly from seven to eight weeks as four mice with the greatest number of brain metastases were sacrificed between these observation points. (Figure right) Kaplan-Meier survival plot (Mantel-Cox log-rank test). The experiment was terminated at 100 days, and three mice in the β-sitosterol group were still alive and healthy. * P < 0.05; ** P < 0.01; **** P < 0.0001. All values are given as the mean ± s.e.m. • Figure 3: In vivo validation of β-sitosterol on H1_DL2 brain metastasis-2. (Figure left) Body weight from week zero to eight. […] After 24 hours, the drugs were added to the wells, incubated for 72 hours, and then viability was assessed using an MTS assay. […] After 24 hours, the drugs were added to the wells, incubated for 72 hours, and then viability was assessed using an MTS assay. […]

brain metastases = assay: in vivo drug screening in human-to-mouse brain metastasis model; details: compared with vehicle-treated mice; for survival: Kaplan-Meier
Source text: (§2) • Figure 1: In vivo drug screening. (Figure left) Number of brain metastases at T1-weighted MRI with contrast (Student's t-test). (Figure right) Kaplan-Meier survival plot (Mantel-Cox log-rank test). There was no significant difference between vehicle- and memantine-treated mice. * P < 0.05; ** P < 0.01. All values are given as the mean ± s.e.m. • Figure 2: In vivo validation of β-sitosterol treatment-1. (Figure left) Number of brain metastases assessed by T1-weighted MRI with contrast (Student's t-test). The mean number of brain metastases in the vehicle group decreased slightly from seven to eight weeks as four mice with the greatest number of brain metastases were sacrificed between these observation points. (Figure right) Kaplan-Meier survival plot (Mantel-Cox log-rank test). The experiment was terminated at 100 days, and three mice in the β-sitosterol group were still alive and healthy. * P < 0.05; ** P < 0.01; **** P < 0.0001. All values are given as the mean ± s.e.m. • Figure 3: In vivo validation of β-sitosterol on H1_DL2 brain metastasis-2. (Figure left) Body weight from week zero to eight. […] (Figure right) Volume of brain metastases at MRI (T1-weighted with contrast). Total volume of brain metastases per animal was compared at group level. Student's t-test: n.s. P ≥ 0.05, * P < 0.05, ** P < 0.01, *** P < 0.001, **** P < 0.0001. All values are given as the mean ± s.e.m. • Figure 4: In vivo validation of β-sitosterol on PC14-PE6-Br2 brain metastases. Mice were injected intracardially with 5 x 10^5 PC14-PE6-Br2 cells. Test groups received daily i.p. injections of 0.1 mL vehicle (olive oil; n =4) or β-sitosterol 5 mg/kg (n = 6). (Figure left) Total volume of brain metastases at MRI at three weeks (T1-weighted with contrast). Total volume of brain metastases per animal was compared at group level. (Figure right) Kaplan-Meier survival plot (Mantel-Cox log-rank test: *** P < 0.001). All values are given as the mean ± s.e.m. • Figure 5: In vitro and in vivo effects on additional melanoma metastatic cell lines. (Figure left) Half maximal inhibitory concentration (IC50) values for β-sitosterol, PLX4720 and the combination thereof in Melmet 1, Melmet 5 and A375 cell lines (n = 3). (Figure right) Subcutaneous tumor volume ([width2 x length]/2) in mice injected with […] Melmet 5 cells. Mice were from 2 weeks onwards given daily i.p. injections of 0.1 mL vehicle (olive oil), 20 mg/kg β-sitosterol in olive oil, 25 mg/kg PLX4720 in 0.05% DMSO, or a combination of the two latter (n = 8 in each group). Representative images of tumors at 44 days are shown in the right panel. Student's t-test: * P < 0.05, ** P < 0.01. Values are given as the mean ± s.e.m. • Figure 6: In vitro effects of other BRAF and MEK inhibitors on human melanoma brain metastatic cell lines. 5000 cells (human BRAF mutated melanoma brain metastatic cell lines H1, H9 or H10) were plated in each well of a 96 well dish. After 24 hours, the drugs were added to the wells, incubated for 72 hours, and then viability was assessed using an MTS assay. […] 5000 cells were plated in each well of a 96 well dish. After 24 hours, the drugs were added to the wells, incubated for 72 hours, and then viability was assessed using an MTS assay.
We next investigated the efficacy of thiostrepton, memantine, and β-sitosterol using a highly standardized human-to-mouse brain metastasis model (Sundstrøm T et al, Cancer Res 2013;73:2445-2456). Drug treatment was commenced one week after tumor cell injections.

four melanoma cell lines = assay: monolayer viability and tumorsphere assays; type: cell-based; details: among top 10 candidate compounds from cMap
Source text: Based on RNA sequencing of tumors in brains, adrenals, bone and ovaries from mice, we defined a 108-gene brain metastasis signature using a comparative work-flow of independent analyses of gene expression profiles from brain versus other organ metastases in a human BRAF-mutant melanoma xenograft model. […] For further studies, we concentrated on the top 10 candidate anti-brain metastatic compounds. To test the efficacy of the candidate compounds, we performed monolayer viability and tumorsphere assays in four melanoma cell lines (Daphu I et al, Int J Mol Sci 2014;15:8773.8794, Netland IA et al, J Neurooncol 2016;129:57-66). IC50 values were generally lower in tumorspheres than in monolayers, and there was substantial variation in cell line sensitivity.

H1 cells = assay: MTS viability assay; type: cell-based, human
Source text: (§3) • Figure 1: In vivo drug screening. (Figure left) Number of brain metastases at T1-weighted MRI with contrast (Student's t-test). (Figure right) Kaplan-Meier survival plot (Mantel-Cox log-rank test). There was no significant difference between vehicle- and memantine-treated mice. * P < 0.05; ** P < 0.01. All values are given as the mean ± s.e.m. • Figure 2: In vivo validation of β-sitosterol treatment-1. (Figure left) Number of brain metastases assessed by T1-weighted MRI with contrast (Student's t-test). The mean number of brain metastases in the vehicle group decreased slightly from seven to eight weeks as four mice with the greatest number of brain metastases were sacrificed between these observation points. (Figure right) Kaplan-Meier survival plot (Mantel-Cox log-rank test). The experiment was terminated at 100 days, and three mice in the β-sitosterol group were still alive and healthy. * P < 0.05; ** P < 0.01; **** P < 0.0001. All values are given as the mean ± s.e.m. • Figure 3: In vivo validation of β-sitosterol on H1_DL2 brain metastasis-2. (Figure left) Body weight from week zero to eight. […] (Figure right) Volume of brain metastases at MRI (T1-weighted with contrast). Total volume of brain metastases per animal was compared at group level. Student's t-test: n.s. P ≥ 0.05, * P < 0.05, ** P < 0.01, *** P < 0.001, **** P < 0.0001. All values are given as the mean ± s.e.m. • Figure 4: In vivo validation of β-sitosterol on PC14-PE6-Br2 brain metastases. Mice were injected intracardially with 5 x 10^5 PC14-PE6-Br2 cells. Test groups received daily i.p. injections of 0.1 mL vehicle (olive oil; n =4) or β-sitosterol 5 mg/kg (n = 6). (Figure left) Total volume of brain metastases at MRI at three weeks (T1-weighted with contrast). Total volume of brain metastases per animal was compared at group level. (Figure right) Kaplan-Meier survival plot (Mantel-Cox log-rank test: *** P < 0.001). All values are given as the mean ± s.e.m. • Figure 5: In vitro and in vivo effects on additional melanoma metastatic cell lines. (Figure left) Half maximal inhibitory concentration (IC50) values for β-sitosterol, PLX4720 and the combination thereof in Melmet 1, Melmet 5 and A375 cell lines (n = 3). (Figure right) Subcutaneous tumor volume ([width2 x length]/2) in mice injected with […] Melmet 5 cells. Mice were from 2 weeks onwards given daily i.p. injections of 0.1 mL vehicle (olive oil), 20 mg/kg β-sitosterol in olive oil, 25 mg/kg PLX4720 in 0.05% DMSO, or a combination of the two latter (n = 8 in each group). […] After 24 hours, the drugs were added to the wells, incubated for 72 hours, and then viability was assessed using an MTS assay. […] After 24 hours, the drugs were added to the wells, incubated for 72 hours, and then viability was assessed using an MTS assay. […]

MDA-MB-231 = assay: MTS viability assay; type: cell-based, human
Source text: as §3

[1] = test system: PC14-PE6-Br2 brain metastases; assay: in vivo validation on lung adenocarcinoma brain metastases; design: species or system mice; details: 5 mg/kg daily i.p.
Source text: • Figure 1: In vivo drug screening. (Figure left) Number of brain metastases at T1-weighted MRI with contrast (Student's t-test). (Figure right) Kaplan-Meier survival plot (Mantel-Cox log-rank test). There was no significant difference between vehicle- and memantine-treated mice. * P < 0.05; ** P < 0.01. All values are given as the mean ± s.e.m. • Figure 2: In vivo validation of β-sitosterol treatment-1. (Figure left) Number of brain metastases assessed by T1-weighted MRI with contrast (Student's t-test). The mean number of brain metastases in the vehicle group decreased slightly from seven to eight weeks as four mice with the greatest number of brain metastases were sacrificed between these observation points. (Figure right) Kaplan-Meier survival plot (Mantel-Cox log-rank test). The experiment was terminated at 100 days, and three mice in the β-sitosterol group were still alive and healthy. * P < 0.05; ** P < 0.01; **** P < 0.0001. All values are given as the mean ± s.e.m. • Figure 3: In vivo validation of β-sitosterol on H1_DL2 brain metastasis-2. (Figure left) Body weight from week zero to eight. […] After 24 hours, the drugs were added to the wells, incubated for 72 hours, and then viability was assessed using an MTS assay. […] After 24 hours, the drugs were added to the wells, incubated for 72 hours, and then viability was assessed using an MTS assay.

H9 cells = assay: MTS viability assay; type: cell-based; details: Homo sapiens, H9, 72 h, read-out: cell viability
Source text: as §1

H10 cells = assay: MTS viability assay; type: cell-based, human
Source text: as §3

H1_DL2 brain metastasis = assay: in vivo validation of β-sitosterol treatment, treatment commenced before cell injection; design: species or system mice
Source text: as §2
To validate our β-sitosterol treatment findings, we carried out a new and more extensive in vivo study in which treatment commenced before cell injection.

[2] = human, mda-mb-231 cells, 72 h, 35 µM
[3] = MRI, treatment commenced one week after tumor cell injections

SMILES: CCCS(=O)(=O)Nc1ccc(F)c(C(=O)c2c[nH]c3ncc(Cl)cc23)c1F [PLX4720, reference compound]
- subcutaneous tumor growth (Melmet 5 cells): effective as monotherapies

SMILES: C=C(NC(=O)C(=C)NC(=O)c1csc(C2=N[C@@H]3c4csc(n4)[C@H]4NC(=O)c5csc(n5)[C@H]([C@](C)(O)[C@@H](C)O)NC(=O)[C@H]5CSC(=N5)/C(=C/C)NC(=O)[C@H]([C@@H](C)O)NC(=O)c5csc(n5)[C@]3(CC2)NC(=O)[C@H](C)NC(=O)C(=C)NC(=O)[C@H](C)NC(=O)[C@H]([C@@H](C)CC)N[C@@H]2C=Cc3c([C@H](C)O)cc(nc3[C@H]2O)C(=O)O[C@@H]4C)n1)C(N)=O [thiostrepton, reference compound]
- survival (brain metastases): significantly shorter lifespan
- reducing viability and tumorsphere growth (four melanoma cell lines): most potent

SMILES: CC(=O)Nc1cccc(-n2c(=O)n(C3CC3)c(=O)c3c(Nc4ccc(I)cc4F)n(C)c(=O)c(C)c32)c1 [trametinib, reference compound]
- cell viability (H1 cells; h1 cells, 72 h, 50 µM): ~60%
- cell viability (MDA-MB-231; [2]): around 44%

SMILES: CC[C@H](CC[C@@H](C)[C@H]1CC[C@H]2[C@@H]3CC=C4C[C@@H](O)CC[C@]4(C)[C@H]3CC[C@]12C)C(C)C [β-sitosterol]
- survival (brain metastases): survived significantly longer
- number of brain metastases (brain metastases; [3]): significant reduction
- volume of brain metastases (brain metastases; [3]): significant reduction
- survival ([1]; Kaplan-Meier): prolonged survival
- brain metastatic burden ([1]; MRI at three weeks, compared with vehicle): significant reduction
- subcutaneous tumor growth (Melmet 5 cells): effective as monotherapies
- viability at 50 µM (H9 cells): 85%
- reducing viability and tumorsphere growth (four melanoma cell lines): most potent
- cell viability (H1 cells; 50uM beta-sitosterol, 5nM trametinib, 72 hours, compared with untreated cells): around 85%
- cell viability (H10 cells; 50uM beta-sitosterol, 5uM vemurafenib, 72 hours, compared to the untreated cells): around 80%
- cell viability (MDA-MB-231; 35uM beta-sitosterol, 0.5uM trametinib, 72 hours (Figure 7 left)): around 48%
- cell viability (MDA-MB-231; 35uM beta-sitosterol, 5uM vemurafenib, 72 hours (Figure 7 right)): around 44%
- survival (H1_DL2 brain metastasis; Kaplan-Meier, compared with vehicle treatment, terminated at 100 days): significant survival benefit
- volumes of brain metastases (H1_DL2 brain metastasis; MRI T1-weighted with contrast, compared with vehicle group): significantly lower volumes
- number of brain metastases (H1_DL2 brain metastasis; T1-weighted MRI with contrast, compared with vehicle group): significantly fewer brain metastases
- mice healthy and tumor-free (H1_DL2 brain metastasis; at 100 days, evaluated by brain MRI and histology): three out of nine
- average body weight (H1_DL2 brain metastasis; at 100 days, three remaining mice, mean ± s.e.m.): 26.7 ± 0.6 grams
- body weight (H1_DL2 brain metastasis; week zero to eight, vehicle-treated mice lost weight from four weeks onwards): maintained a stable body weight

SMILES: CC12CC3CC(C)(C1)CC(N)(C3)C2 [memantine, reference compound]
- survival (brain metastases): did not affect survival
- reducing viability and tumorsphere growth (four melanoma cell lines): most potent

SMILES: CCCS(=O)(=O)Nc1ccc(F)c(C(=O)c2c[nH]c3ncc(-c4ccc(Cl)cc4)cc23)c1F [vemurafenib, reference compound]
- cell viability (H10 cells; h10 cells, 72 h, 50 µM): around 25%
- cell viability (MDA-MB-231; [2]): ~73%

— patent EP3560516A1, “COMBINATION THERAPY INCLUDING BETA-SITOSTEROL IN COMBINATION WITH AT LEAST ONE OF A BRAF INHIBITOR, A MEK INHIBITOR OR AN ERK INHIBITOR AND METHODS AND USE THEREOF” (Bergen Teknologioverføring AS, priority 2018, dated 2019)
